We go through five compounds from publication PMC2972649 (Journal of Medicinal Chemistry, 2010).

Assay [1] has as its target T1, Nek2 (Homo sapiens, UniProt P51955).
T1 sequence (P51955 1-445): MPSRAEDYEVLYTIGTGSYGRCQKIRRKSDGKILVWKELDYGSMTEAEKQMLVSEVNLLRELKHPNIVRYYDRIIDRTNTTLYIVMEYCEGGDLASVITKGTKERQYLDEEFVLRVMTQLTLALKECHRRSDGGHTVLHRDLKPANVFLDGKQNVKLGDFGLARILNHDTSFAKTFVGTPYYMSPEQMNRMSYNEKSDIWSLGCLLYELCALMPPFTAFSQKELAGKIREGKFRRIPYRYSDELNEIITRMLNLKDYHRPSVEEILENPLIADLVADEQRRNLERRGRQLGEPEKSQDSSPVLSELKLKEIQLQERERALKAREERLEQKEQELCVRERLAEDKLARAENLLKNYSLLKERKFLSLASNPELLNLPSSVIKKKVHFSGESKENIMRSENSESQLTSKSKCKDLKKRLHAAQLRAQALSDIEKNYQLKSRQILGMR
The format is biochemical. The note with it: for fold improvement in Nek2 potency on substitution of the thiophene: comparator not given.

For assay [2], the target named is T2, Nek1 (Homo sapiens, UniProt Q96PY6).
T2 sequence (Q96PY6 1-505 limits assumed): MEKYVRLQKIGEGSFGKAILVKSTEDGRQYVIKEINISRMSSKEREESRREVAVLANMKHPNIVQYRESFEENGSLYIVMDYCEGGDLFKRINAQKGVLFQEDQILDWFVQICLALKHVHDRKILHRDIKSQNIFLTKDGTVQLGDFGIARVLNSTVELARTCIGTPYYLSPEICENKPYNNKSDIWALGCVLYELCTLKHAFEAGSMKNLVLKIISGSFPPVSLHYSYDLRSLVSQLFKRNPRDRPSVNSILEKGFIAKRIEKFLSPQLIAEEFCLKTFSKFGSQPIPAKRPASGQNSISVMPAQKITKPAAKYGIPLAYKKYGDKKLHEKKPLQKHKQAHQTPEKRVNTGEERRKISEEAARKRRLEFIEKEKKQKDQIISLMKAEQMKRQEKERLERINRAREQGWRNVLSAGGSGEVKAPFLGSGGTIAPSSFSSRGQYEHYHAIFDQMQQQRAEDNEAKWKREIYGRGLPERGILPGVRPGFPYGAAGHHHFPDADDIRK
As to the kind of experiment: Nek1 Caliper kinase assay. As to conditions: Nek2 versus Nek1. Type of assay: biochemical.

For `Nc1ncc(-c2sccc2C2CC2)nc1N1CCC(C(=O)O)CC1` [Compound 36], the “fold improvement in Nek2 potency on substitution of the thiophene” value in assay [1] is “approximately 4 fold”.

As to `COc1cc(-c2cnc(N)c(N3CC[C@H](C(=O)O)[C@H](C)C3)n2)cc(OC)c1OC` [Compound 20, (−)-(3S,4S)-1-(3-Amino-6-(3,4,5-trimethoxyphenyl)pyrazin-2-yl)-3-methylpiperidine-4-carboxylic Acid], in assay [1], the “fold loss of Nek2 potency compared to hit 2” value (shortened to “fold loss of Nek2 potency”) is reported as 10.

For the compound `COc1cccc(-c2cnc(N)c(N3CCC(C(=O)O)CC3)n2)c1` [Compound 5], the “fold loss of Nek2 potency” value in assay [1] is 4-5 fold.

Consider `CCc1ccsc1-c1cnc(N)c(N2CCC(C(=O)O)CC2)n1` [Compound 35], for which the “selectivity against Nek1” value in assay [2] is given as “approximately 10 fold”. In addition, the “fold improvement in Nek2 potency on substitution of the thiophene” value in assay [1] is on record as “approximately 4 fold”.

Take `Nc1nccnc1N1CCC(C(=O)O)CC1` [Compound 8]: the “fold loss of Nek2 potency” value in assay [1] is on record as “approximately 50 fold”.
